Source: US20050182020A1, “Ceramide de novo synthesis-based therapeutic and prophylactic methods, and related articles of manufacture” (priority 2003, published 2005)

What was measured:
[1] = tested on: SRE-mediated gene transcription; assay: SRE-mediated gene transcription, Part II inhibitors of sphingolipid synthesis and DAG generation; assay type: cell-based; design: SRE-mediated gene transcription inhibited to: unit of the concentration uncertain
Description: Reduction of de novo sphingolipid synthesis: Incubation with methylthiodihydroceramide (10 μM) for 6 h reduces SRE-mediated gene transcription to 40%. Methylthiodihydroceramide was received from Gerhild van Echten-Deckert (1). Reduction of de novo sphingolipid biosynthesis by 1-methylthiodihydroceramide is due to its ability to deplete cells of newly formed free sphinganine.
Inhibition of sphingomyelin synthesis: The D609 compound is a xanthate and inhibitor of sphingomyelin synthase. It is a mixture of several isoforms (2). Experiments were carried out with five defined isomers of D609 received via Gemma Fabrias (Dept. of Biological Organic Chemistry, Barcelona, Spain) (Table 1). […] A concentration curve of 10, 20 and 40 μg/ml was tested over 5 h.
Data: Propanolol ([…]) inhibits SRE-mediated gene transcription to 40% (+3%) within 30 min. Resvaratrol ([…]) inhibits SRE-mediated gene transcription to 7% (±16%) within 4 h.

[2] = tested on: SRE-mediated gene transcription; assay: SRE-promoter luciferase reporter gene assay in stably transfected CHO cells; assay type: cell-based, Chinese hamster; settings: for SRE-mediated gene transcription (luciferase RLU/protein): myriocin 1 μM, cycloserine 500 mM, fumonisin B1 10 μM, PPMP 20 μM, NB-DNJ 40 μM, cholesterol/25-OH cholesterol 10/1 μg/ml, vs 1% BSA
Description: FIG. 3. Inhibition of ceramide synthesis and SRE-mediated gene transcription. (A) Decreased ceramide synthesis correlates with decreased levels of SRE-mediated gene transcription and mSREBP. […] After cell lysis, luciferase activity was analyzed, and expressed as a ratio of protein content. Data represent the average (±S.D.) of at least 4 different experiments, each performed in triplicate. […] CHO cells stably transfected with an SRE-promoter construct linked to the luciferase reporter gene were incubated for 8 h in the presence of control conditions (1% BSA) or increasing levels of myriocin (0.25-1 μM). After cell lysis, luciferase activity was analyzed, expressed as a ratio of protein content. Data represent the average (±S.D.) of at least 3 different experiments, each performed in triplicate.
FIG. 4. Increased ceramide synthesis and SRE-mediated gene transcription. (A) Increased ceramide de novo synthesis correlates with increased SRE-mediated gene transcription. On day 1, CHO cells stably transfected with an SRE-promoter construct linked to the luciferase reporter gene were plated at 80% confluency. […] Cells were harvested, lysed and analyzed for luciferase activity (measured in relative light units, RLU) and protein content. Data are expressed as percentage of control and represent the average (±S.D.) of three different experiments, each performed in triplicate. Inset: Western blot analysis: On day 1, CHO cells were plated in regular growth medium. On day 2, cells were incubated for 8 h with control medium (1% BSA) or DMS (5 μM). Whole cell extracts (30 μg protein) were loaded on a 4-14% continuous gradient SDS-PAGE gel. P and M denote the precursor (125 kd) and mature (68 kd) form of SREBP-1 in a representative experiment. (B) DMS increases ceramide de novo synthesis. CHO cells were treated for 3.5 h either with control conditions (1% BSA) or DMS (2.5-5 μM). […] Data are expressed as dpm/protein and represent a typical experiment.
(§1) FIG. 5. LY-B cells fail to recover SRE-mediated gene transcription in cholesterol depletion but recover SRE-mediated gene transcription in the presence of DMS. […] Both cell lines have been transfected to stably express an SRE-promoter construct linked to the luciferase reporter gene. On day 2, cells were incubated for 16 h with 1% BSA (control) or in the presence of cholesterol (10 μg/ml) and 25-OH cholesterol (1 μg/ml) to decrease SRE-mediated gene transcription. Then, incubation medium was switched to 1% BSA or DMS (5 μM) for 6 h. After cell lysis, luciferase activity was analyzed, expressed as a ratio of protein content. Data represent the average (±S.D.) of at least 4 different experiments, each performed in triplicate.
Cell culture and stable transfections: Cells were grown in F12-nutrient mixture medium containing 10% fetal bovine serum (FBS), 1% glutamine (v/v), 1% penicillin/streptomycin (v/v), and 10% fetal bovine serum (v/v) at 37° C. in humidified CO2 (5%). To obtain stable transfectants, cells were plated in 12-well plates at 50% confluency and transfected for 5 h in the presence of serum-free Dulbecco's modified Eagle's medium (DMEM) with pSyn SRE (1 μg/well) and pWLNeo (0.25 μg/well) using Lipofectamin (1.5 μl/well). Cells were then incubated for 2 days in growth medium. On day three, neomycin-containing medium (400 μg/ml) was added. Selection for neomycin resistant colonies was continued for three weeks. Pooled clones were analyzed for luciferase expression. Experiments were performed with pooled clones as well as with cells derived from a single clone. Cells were grown in the presence of 400 μg/ml neomycin. For experimental use, cells were plated in the absence of neomycin at least 24 h ahead in regular growth medium.
Enzyme assays: Cells to be analyzed for luciferase activity were lyzed in lysis buffer A containing 0.1% Triton X-100, 50 mM Hepes, 10 mM MgSO4, pH 7.7. Cells were scraped, collected, vortexed and briefly centrifuged to pellet cell debris. […]

[3] = tested on: Niemann Pick Disease Type A fibroblasts; assay: Ceramide de novo synthesis (3H-serine) in NPA fibroblasts; assay type: cell-based; settings: overnight incubation with agent, vs 1% BSA
Description: FIG. 19. Ceramide synthesis is increased in NPA fibroblasts. Fibroblasts from different control individuals and from two different cell lines derived from Niemann Pick Disease Type A were incubated for 4 h in the presence of ^3H-serine to measure de novo ceramide synthesis after having been incubated overnight in either control medium (1% BSA) or in the presence of cholesterol or C8-Ceramide. Lipid extraction and separation were carried out.

HMG-CoA synthase mRNA = settings: previously shown (ref. 10); cited from earlier work
HSN1 cells (4561) = assay: Cholesterol / cholesterylester synthesis from 3H-mevalonate in HSN1 cells; assay type: cell-based, human; settings: 16 h, 3H-mevalonate
Description: FIG. 12. Increased free cholesterol synthesis in HSN cells. In order to investigate whether increased SRE-mediated gene transcription also results in increased cholesterol synthesis cells were incubated with radioactive mevalonate, a precursor which represents a committed step in cholesterol synthesis (see FIG. 11). Control and HSN1 cells were incubated for 7 h and 18 h in the presence of trace amounts of ^3H-mevalonate. Lipids were extracted and separated by thin […] chromatography (TLC). Radioactive counts in the cholesterol fraction were analyzed by liquid scintillation counting.
FIG. 14. Oleic acid increases HSN 4561 synthesis of high levels of free cholesterol but not cholesteryl ester. Cells were incubated for 4 h with ^3H-mevalonate and grown in the presence or absence of 0.3 mM oleic acid.
FIG. 16. Incubation with mevastatin decreases free cholesterol synthesis in HSN cells as well as in controls. Cells were treated for 16 h in the presence of ^3H-mevalonate to assess cholesterol de novo synthesis and several inhibitors of either cholesterol or ceramide synthesis (Mevastatin=Statin), C6 ceramide (previously shown by us to decreased SREBP levels and SRE-mediated gene transcription), cycloserine (inhibitor of serine-palmiltoyl transferase), cholesterol (classical inhibitor of de novo synthesis by negative feedback).

SREBP-1 = assay: Western blot analysis of precursor and mature SREBP-1 in CHO cells; assay type: cell-based, Chinese hamster; settings: C6-ceramide 20 μM, 4 h and 8 h, vs controls
Description: FIG. 2. C6-ceramide increases pSREBP levels. On day 1, CHO cells were plated in regular growth medium. On day 2, cells were incubated for 4 and 8 h with 1% BSA (control) or in the presence of C6-ceramide (20 μM). Whole cell extracts (30 μg protein) were loaded on a 4-14% continuous gradient SDS-PAGE gel. P denotes the precursor (125 kd) form of SREBP-1 in a representative experiment. C6 ceramide increases the precursor form of SREBP-1 and decreases the mature form of SREBP-1. […] The blot is representative of experiments carried out with ceramide analogues of different chain length. Densitometric results were obtained by analyzing pixels/inch (corrected for actin) and expressed relative to control.
FIG. 4. Increased ceramide synthesis and SRE-mediated gene transcription. (A) Increased ceramide de novo synthesis correlates with increased SRE-mediated gene transcription. […] Cells were harvested, lysed and analyzed for luciferase activity (measured in relative light units, RLU) and protein content. Data are expressed as percentage of control and represent the average (±S.D.) of three different experiments, each performed in triplicate. […] Data are expressed as dpm/protein and represent a typical experiment.
Western blot analysis: Cells were plated on day one in regular growth medium. […] Densitometric quantification was carried out using Scion Image beta 4.02 software (www.scioncorp.com). […]

[4] = tested on: SRE-mediated gene transcription; assay: SRE-promoter luciferase reporter gene assay in LY-B cells (CHO cells mutated in LCB1 subunit of serine-palmitoyl transferase); assay type: cell-based, Chinese hamster; settings: preliminary data
Description: as §1
Enzyme assays: Cells to be analyzed for luciferase activity were lyzed in lysis buffer A containing 0.1% Triton X-100, 50 mM Hepes, 10 mM MgSO4, pH 7.7. Cells were scraped, collected, vortexed and briefly centrifuged to pellet cell debris. An aliquot was used to measure luciferase activities in a luminometer (Berthold LB 9501, Wallac Inc., Gaithersburg, Md.) with a luciferin reagent from Promega (Madison, Wis.). Luciferase activity in relative light units (RLU) was divided by protein content (mg/ml) for each extract. […]

Compound: 1-methylthiodihydroceramide
- SRE-mediated gene transcription reduced to ([1]; 10 μM, 6 h): 40%

Compound: CCCCCCCCCCCCCCCC(=O)NC(CN1CCOCC1)C(O)c1ccccc1.Cl (racemic) [PPMP, DL-threo-1-Phenyl-2-palmitoylamino-3-morpholino-1-propanol HCL]
- SRE-mediated gene transcription (luciferase RLU/protein) ([2]; 8 h): significantly reduce

Compound: CCCCCCCCCCCCC/C=C/[C@@H](O)[C@H](CO)NC(=O)CCCCCCC [C8-ceramide, D-erythro N-octanoylsphingosine]
- ceramide de novo synthesis (3H-serine, 4 h) [3]: significantly decreases

Compound: CCCCCCCCCCCCCC(=O)N[C@H](C)[C@@H](O)c1ccccc1 [D-MAPP, (1S,2R)-D-erythro-2-(N-Myristoylamino)-1-phenyl-1-propanol]
- mRNA levels of HMG-CoA synthase (HMG-CoA synthase mRNA): decrease

Compound: CCCCN1C[C@H](O)[C@@H](O)[C@H](O)[C@H]1CO.Cl [NB-DNJ, N-Butyldeoxynojirimycin-HCL]
- SRE-mediated gene transcription (luciferase RLU/protein) ([2]; 8 h): does not affect

Compound: CC(C)NCC(O)COc1cccc2ccccc12 (stereo not shown) [Propanolol]
- SRE-mediated gene transcription inhibited to ([1]; 250 (unit uncertain), within 30 min): 40% (+3%)

Compound: Oc1ccc(C=Cc2cc(O)cc(O)c2)cc1 [Resvaratrol, resveratrol]
- SRE-mediated gene transcription inhibited to ([1]; 300 (unit uncertain), within 4 h): 7% (±16%)

Compound: CCCCCCCCCCCCC/C=C/[C@@H](O)[C@@H](N)CO [Sphingosine]
- increase of SRE-mediated gene transcription ([2]; sphingosine 1.5 μM, 8 h): up to two-fold

Compound: N[C@@H]1CON=C1O [cycloserine]
- SRE-mediated gene transcription (luciferase RLU/protein) ([2]; 8 h): significantly reduced

Compound: AG10
- Reduction of SRE-mediated gene transcription(40 μg/ml) ([1]; 40 μg/ml, 5 h): 52% (±11%)

Compound: D-erythro hexanoylsphingosine [C6-ceramide]
- sensitivity of cholesterol de novo synthesis in HSN1 cells (4561) relative to control cells (HSN1 cells (4561)): more sensitive
- cellular levels of pSREBP (SREBP-1): increased
- levels of mSREBP (SREBP-1): decreased

Compound: ceramide
- SRE-mediated gene transcription in LYB-cells incubated with ceramide [4]: did not decrease
- SRE-mediated gene transcription on addition of ceramide ([2]; under the experimental conditions of FIG. 3, data not shown): did not increase
- mRNA levels of HMG-CoA synthase (HMG-CoA synthase mRNA): decrease
